Where no end group is shown, it is not given here.
Assays:
[1] = tested on: Alternaria brassicola MUCL 20297; assay type: cell-based
[2] = tested on: Ascochyta pisi MUCL 30164; assay type: cell-based
[3] = tested on: Botrytis cinerea MUCL 30158; assay type: cell-based
[4] = tested on: Cercospora beticola strain K897; assay type: cell-based
[5] = tested on: Colletotrichum lindemuthianum MUCL 9577; assay type: cell-based
[6] = tested on: Verticillium dahliae MUCL 19210; assay type: cell-based
[7] = tested on: Venturia inaegualis MUCL 15927; assay type: cell-based
[8] = Chitin micro-column binding; conditions: washed at pH 7, desorbed with 100 mM acetic acid (pH 2.8), SDS-PAGE
[9] = tested on: B cinerea; assay: Effect of ions on antifungal activity (synthetic growth medium); assay type: cell-based, Botrytis cinerea; conditions: for increase of the IC50 values with CaCl2 at 1 mM: reference medium + 1 mM CaCl2; for effect of KCl at 10 mM on the dose-response curves: reference medium + 10 mM KCl; for increase of the IC50 values with KCl at 50 mM: reference medium + 50 mM KCl
[10] = tested on: Fusarium culmorum IMI 180420; assay type: cell-based
[11] = tested on: Rhizoctonia solani CBS 207-84; assay type: cell-based
[12] = tested on: Fusarium oxysporum f.sp. pisi IMI 236441; assay type: cell-based
[13] = tested on: Fusarium oxysporum f.sp. lycopersici MUCL 909; assay type: cell-based
[14] = tested on: Nectria haematococca Collection Van Etten 160-2-2; assay type: cell-based
[15] = tested on: Penicillium digitatum (K0879); assay type: cell-based
[16] = tested on: Phoma betae MUCL 9916; assay type: cell-based
[17] = tested on: Pyrenophora tritici-repentis MUCL 30217; assay type: cell-based
[18] = tested on: Pyricularia oryzae MUCL 30166; assay type: cell-based
[19] = tested on: Trichoderma viride (K1127); assay type: cell-based
[20] = tested on: Verticillium albo-atrum (K0937); assay type: cell-based
[21] = tested on: Fusarium culmorum; assay type: physicochemical
Description: Tests for antifungal activity were performed with 20 μl samples diluted five-fold with growth medium containing Fusarium culmorum spores, according to the assay method given in Example 1. untreated control samples consisted of the test proteins at 500 μg/ml in 10 mM sodium phosphat buffer (pH 7). For digestions, different proteases were added at 100 μg/ml and incubated at 37° C. for 16 hours. Heat stability tests were performed by heating aliquots of the test proteins for 10 minutes at different temperatures up to 100° C. pH stability was tested by incubation of test proteins for 1 hour in either 20 mM glycine-HCl (pH 2) or glycine-NaOH (pH 11) and subsequent dialysis for 16 hours against 10 mM sodium phosphate buffer (pH 7) using benzoylated cellulose tubing. Reduction of dishulphide bridges was done by addition of DTE at 30 mM and Tris-HCl (pH 8.6) at 300 mM. The reagents were removed by reversed-phase chromatography. For digestions, different proteases were added at 200 μg/ml and incubated at 37° C. for 3 hours.

[22] = tested on: plant pathogenic fungi; assay type: cell-based
[23] = tested on: Saccharomyces cerevisiae JRY188; conditions: S cerevisiae
Description: Routinely, tests were performed with 20 μl of a (filter-sterilized) test solution and 80 μl of a fungal spore suspension (2×10^4 spores/ml) or mycelium fragments in either half strength potato dextrose broth (medium A) or half strength potato dextrose broth with CaCl2 and KCl added to final concentrations of 1 mM and 50 mM respectively (medium B). For experiments on the antagonistic effect of cations, a synthetic growth medium was used instead of Potato Dextrose Broth. […] Control microcultures contained 20 μl of sterile distilled water and 80 μl of the fungal spore suspension.
Unless otherwise stated the test organism was Fusarium culmorum (strain IMI 180420) and incubation was carried out at 25° C. for 48 hours. Percent growth inhibition is defined as 100 times the ratio of the corrected absorbance of the control microculture minus the corrected absorbance of the test microculture over the corrected absorbance at 595 nm of the control microculture. The corrected absorbance values equal the absorbance at 595 nm of the culture measured after 48 hours minus the absorbance at 595 nm measured after 30 min. […] The antifungal activity (units per ml) is calculated as 50 times the dilution factor of a test solution at which 50% growth inhibition is obtained under the given assay conditions.
Antibacterial activity was measured microspectrophotometrically as follows. […]

[24] = tested on: Phytophthora infestans; assay type: cell-based

## Ac-AMP2: Antimicrobial protein from Amaranthus caudatus seeds, 30 residues, Ac-AMP1 plus a carboxyl-terminal arginine (SEQ ID NO: 6) (VGECVRGRCPSGMCCSQFGYCGKGPKYCGR; not fully specified; cysteine pairing not given here)
[1]
  IC50: 4 mg/L
[2]
  IC50: 8 mg/L
[3]
  IC50: 8 mg/L
[4]
  IC50: 0.8 mg/L
[5]
  IC50: 8 mg/L
[6]
  IC50: 5 mg/L
[7]
  IC50: 3 mg/L
[8]
  affinity toward chitin: exhibit affinity toward chitin
[9]
  increase of the IC50 values with CaCl2 at 1 mM: five to six-fold
  effect of KCl at 10 mM on the dose-response curves: did not significantly affect the dose-response curves
  increase of the IC50 values with KCl at 50 mM: about three-fold

## Ca-AMP1: Antimicrobial protein purified from seeds of Capsicum annuum (SEQ ID NO: 15) (QEQCGNQAGGRACANRLCCSQYGYCGSTRAYCGVGCQSNCGR)
[1]
  IC50 (μg/ml) Medium B: >500 µg/mL
[2]
  IC50 (μg/ml) Medium B: >500 µg/mL
[3]
  IC50 (μg/ml) Medium B: >500 µg/mL
[4]
  IC50 (μg/ml) Medium B: 200 µg/mL
[5]
  IC50 (μg/ml) Medium A: 50 µg/mL
  IC50 (μg/ml) Medium B: >500 µg/mL
[10]
  IC50 (μg/ml) Medium A: 4 µg/mL
  IC50 (μg/ml) Medium B: >500 µg/mL
  morphological changes in partially inhibited fungal spores: severe branching of the emerging hyphal tips
[11]
  IC50 (μg/ml) Medium A: 8 µg/mL
  IC50 (μg/ml) Medium B: >500 µg/mL
[6]
  IC50 (μg/ml) Medium A: 6 µg/mL
  IC50 (μg/ml) Medium B: >500 µg/mL
[12]
  IC50 (μg/ml) Medium A: >500 µg/mL
  IC50 (μg/ml) Medium B: >500 µg/mL
[13]
  IC50 (μg/ml) Medium A: 300 µg/mL
  IC50 (μg/ml) Medium B: >500 µg/mL
[14]
  IC50 (μg/ml) Medium A: 4 µg/mL
  IC50 (μg/ml) Medium B: >500 µg/mL
[15]
  IC50 (μg/ml) Medium B: >500 µg/mL
[16]
  IC50 (μg/ml) Medium A: 300 µg/mL
  IC50 (μg/ml) Medium B: >500 µg/mL
[17]
  IC50 (μg/ml) Medium A: 70 µg/mL
  IC50 (μg/ml) Medium B: >500 µg/mL
[18]
  IC50 (μg/ml) Medium A: 5 µg/mL
  IC50 (μg/ml) Medium B: >500 µg/mL
[19]
  IC50 (μg/ml) Medium A: 200 µg/mL
  IC50 (μg/ml) Medium B: >500 µg/mL
[20]
  IC50 (μg/ml) Medium B: >500 µg/mL
[8]
  affinity toward chitin: exhibits affinity to chitin
[21]; chymotrypsin digestion, 37° C.
  antifungal activity after chymotrypsin treatment: no affect on activity
[21]; heating for 10 minutes at different temperatures up to 100° C.
  antifungal activity after heat treatment: resistant to heat treatment at up to 80 °C for 10 minutes
[21]; pronase E digestion, 37° C.
  reduction of antifungal activity after pronase E treatment: at least 10 fold
[21]; proteinase K digestion, 37° C.
  reduction of antifungal activity after proteinase K treatment: at least 10 fold
[21]; reduction by DTE / dithiothreitol
  antifungal activity after reduction of disulphide bonds: completely abolished the antifungal activity
[21]; trypsin digestion, 37° C.
  reduction of antifungal activity after trypsin treatment: 2 fold
[22]
  number of pathogenic fungi with IC50 value below 10 μg/ml: 10 of the fungi
[23]
  IC50: 30 mg/L

## Ac-AMP1: Antimicrobial protein from Amaranthus caudatus seeds, 29 residues, dimer of two identical 3 kDa subunits (SEQ ID NO: 5) (VGECVRGRCPSGMCCSQFGYCGKGPKYCG; cysteine pairing not given here; also: dimer of two identical subunits)
[24]
  IC50: 12 mg/L
[8]
  affinity toward chitin: exhibit affinity toward chitin
[9]
  increase of the IC50 values with CaCl2 at 1 mM: five to six-fold
  effect of KCl at 10 mM on the dose-response curves: did not significantly affect the dose-response curves
  increase of the IC50 values with KCl at 50 mM: about three-fold

Reference: patent US6521590B1, “Biocidal proteins” (priority 1991, dated 2003)
